Measurements from the supplement of paper PMC10307832.

What was measured:
Test in all cases: relative viability (nuclei count vs DMSO), 5 days (fraction); higher = more cells survive
H3255 = system: H3255
Procedure, shortened: (§1)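 The day after seeding in 1536-well plates, lung cancer cell lines were treated by pin tool with a single drug, or with a fixed anchor-drug dose together with five library-drug doses (not always all listed) in √10 steps. After 5 days, a combined fix-and-stain solution (final 0.05% Triton X-100, 1% formaldehyde, 1 ug/ml Hoechst) was added. Nuclei counted on 4× images gave relative viability as treated counts over vehicle counts, reported as the median of duplicate plates.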

CAL-12T = system: CAL-12T
Procedure, shortened: as §1

HOP-62 = system: HOP-62
Procedure, shortened: as §1

NCI-H647 = system: NCI-H647
Procedure, shortened: as §1

LXF-289 = system: LXF-289
Procedure, shortened: as §1

NCI-H2009 = system: NCI-H2009
Procedure, shortened: as §1

NCI-H2170 = system: NCI-H2170
Procedure, shortened: as §1

NCI-H2087 = system: NCI-H2087
Procedure, shortened: as §1

NCI-H1755 = system: NCI-H1755
Procedure, shortened: as §1

NCI-H596 = system: NCI-H596
Procedure, shortened: as §1

NCI-H322M = system: NCI-H322M
Procedure, shortened: as §1

NCI-H1734 = system: NCI-H1734
Procedure, shortened: as §1

EMC-BAC-2 = system: EMC-BAC-2
Procedure, shortened: as §1

NCI-H441 = system: NCI-H441
Procedure, shortened: as §1

201T = system: 201T
Procedure, shortened: as §1

NCI-H2126 = system: NCI-H2126
Procedure, shortened: as §1

NCI-H1651 = system: NCI-H1651
Procedure, shortened: as §1

LK-2 = system: LK-2
Procedure, shortened: as §1

COCC1(CO)C(=O)C2CCN1CC2 (stereo not drawn) [PRIMA-1MET] + CC1(C)CCC(c2ccc(Cl)cc2)=C(CN2CCN(c3ccc(C(=O)NS(=O)(=O)c4ccc(N[C@H](CCN5CCOCC5)CSc5ccccc5)c(S(=O)(=O)C(F)(F)F)c4)cc3)CC2)C1 [Navitoclax] (partner 0.5 µM)
relative viability (H3255; first compound 0.2 µM): 0.557 | relative viability (H3255; first compound 0.6325 µM): 0.522 | relative viability (H3255; first compound 2 µM): 0.515 | relative viability (H3255; first compound 6.325 µM): 0.544 | relative viability (H3255; first compound 20 µM): 0.354 | relative viability (CAL-12T; first compound 0.2 µM): 1.3 | relative viability (CAL-12T; first compound 0.6325 µM): 1.32 | relative viability (CAL-12T; first compound 2 µM): 1.15 | relative viability (CAL-12T; first compound 6.325 µM): 1.3 | relative viability (CAL-12T; first compound 20 µM): 0.583 | relative viability (HOP-62; first compound 0.2 µM): 1.44 | relative viability (HOP-62; first compound 0.6325 µM): 1.01 | relative viability (HOP-62; first compound 2 µM): 0.94 | relative viability (HOP-62; first compound 6.325 µM): 0.962 | relative viability (HOP-62; first compound 20 µM): 0.839 | relative viability (NCI-H647; first compound 0.2 µM): 1.15 | relative viability (NCI-H647; first compound 0.6325 µM): 1 | relative viability (NCI-H647; first compound 2 µM): 0.889 | relative viability (NCI-H647; first compound 6.325 µM): 1.24 | relative viability (NCI-H647; first compound 20 µM): 0.909 | relative viability (LXF-289; first compound 0.2 µM): 0.966 | relative viability (LXF-289; first compound 0.6325 µM): 0.956 | relative viability (LXF-289; first compound 2 µM): 0.93 | relative viability (LXF-289; first compound 6.325 µM): 0.986 | relative viability (LXF-289; first compound 20 µM): 0.903 | relative viability (NCI-H2009; first compound 0.2 µM): 1.2 | relative viability (NCI-H2009; first compound 0.6325 µM): 1.23 | relative viability (NCI-H2009; first compound 2 µM): 1.23 | relative viability (NCI-H2009; first compound 6.325 µM): 1.16 | relative viability (NCI-H2009; first compound 20 µM): 0.302 | relative viability (NCI-H2170; first compound 0.2 µM): 0.621 | relative viability (NCI-H2170; first compound 0.6325 µM): 0.543 | relative viability (NCI-H2170; first compound 2 µM): 0.456 | relative viability (NCI-H2170; first compound 6.325 µM): 0.622 | relative viability (NCI-H2170; first compound 20 µM): 0.554 | relative viability (NCI-H2087; first compound 0.2 µM): 1.03 | relative viability (NCI-H2087; first compound 0.6325 µM): 0.901 | relative viability (NCI-H2087; first compound 2 µM): 1.22 | relative viability (NCI-H2087; first compound 6.325 µM): 1.2 | relative viability (NCI-H2087; first compound 20 µM): 0.842 | relative viability (NCI-H1755; first compound 0.2 µM): 1.07 | relative viability (NCI-H1755; first compound 0.6325 µM): 1.01 | relative viability (NCI-H1755; first compound 2 µM): 0.535 | relative viability (NCI-H1755; first compound 6.325 µM): 0.953 | relative viability (NCI-H1755; first compound 20 µM): 1.05 | relative viability (NCI-H596; first compound 0.2 µM): 1 | relative viability (NCI-H596; first compound 0.6325 µM): 0.797 | relative viability (NCI-H596; first compound 2 µM): 1.01 | relative viability (NCI-H596; first compound 6.325 µM): 1.08 | relative viability (NCI-H596; first compound 20 µM): 0.982 | relative viability (NCI-H322M; first compound 0.2 µM): 1.51 | relative viability (NCI-H322M; first compound 6.325 µM): 1.4 | relative viability (NCI-H322M; first compound 20 µM): 1.13 | relative viability (NCI-H1734; first compound 0.2 µM): 0.943 | relative viability (NCI-H1734; first compound 0.6325 µM): 0.772 | relative viability (NCI-H1734; first compound 2 µM): 0.744 | relative viability (NCI-H1734; first compound 6.325 µM): 0.922 | relative viability (NCI-H1734; first compound 20 µM): 0.221 | relative viability (EMC-BAC-2; first compound 0.2 µM): 1.18 | relative viability (EMC-BAC-2; first compound 0.6325 µM): 1.16 | relative viability (EMC-BAC-2; first compound 2 µM): 1.13 | relative viability (EMC-BAC-2; first compound 6.325 µM): 1.25 | relative viability (EMC-BAC-2; first compound 20 µM): 1.15 | relative viability (NCI-H441; first compound 0.2 µM): 0.561 | relative viability (NCI-H441; first compound 0.6325 µM): 0.334 | relative viability (NCI-H441; first compound 2 µM): 1.02 | relative viability (NCI-H441; first compound 6.325 µM): 0.644 | relative viability (NCI-H441; first compound 20 µM): 0.0807 | relative viability (201T; first compound 0.2 µM): 1.31 | relative viability (201T; first compound 0.6325 µM): 1.17 | relative viability (201T; first compound 2 µM): 1.13 | relative viability (201T; first compound 6.325 µM): 1.27 | relative viability (201T; first compound 20 µM): 1.2 | relative viability (NCI-H2126; first compound 0.2 µM): 0.931 | relative viability (NCI-H2126; first compound 0.6325 µM): 0.833 | relative viability (NCI-H2126; first compound 2 µM): 0.897 | relative viability (NCI-H2126; first compound 6.325 µM): 0.852 | relative viability (NCI-H2126; first compound 20 µM): 0.839 | relative viability (NCI-H1651; first compound 0.2 µM): 1.15 | relative viability (NCI-H1651; first compound 0.6325 µM): 1 | relative viability (NCI-H1651; first compound 2 µM): 0.918 | relative viability (NCI-H1651; first compound 6.325 µM): 1.19 | relative viability (NCI-H1651; first compound 20 µM): 0.974 | relative viability (LK-2; first compound 0.2 µM): 1.06 | relative viability (LK-2; first compound 0.6325 µM): 0.771 | relative viability (LK-2; first compound 2 µM): 0.617 | relative viability (LK-2; first compound 6.325 µM): 0.726 | relative viability (LK-2; first compound 20 µM): 0.133
